Experimental data published in patent publication US12116371B2, “Substituted pyridines as irreversible inhibitors of menin-MLL interaction” (BIOMEA FUSION, INC., priority 2018, dated 2024).
Like-named read-outs stand apart in the source and are kept apart here.

What was measured:
Conditions in all cases: for IC50: Homo sapiens
[1] = test system: KG-1 cells; assay: Long term proliferation assay, InCell read-out; format: cell-based
Procedure: (§1) Compounds of invention are tested in the 5 suspension lines by 14-day long-term proliferation assay.
(§2) The compound is tested in 10-pt dose titration (client will determine the starting concentration and the dilution scheme) and the final DMSO concentration is kept at 0.2%.
(§3) On Day 0, in a flat bottom 96-well plate, add 100 μL of cells per well at the densities optimized. Prepare compounds in DMSO at 500× final concentration. Dilute the compounds with DMSO at the dilution. Dilute the compounds in media at 3× final concentration. Add 50 μL of compound or DMSO at 3× final concentration to each well. Final volume in each well is 150 μL, and final concentration of DMSO is 0.2%. Also include 3 untreated control wells, by adding 50 μL of media alone. Incubate plates for 96 hours.
(§4) To do this take the total viable cell count calculated using step: • 1. Take the average of the replicates for each dose in order to be used in splitting the cells. • 2. Use a 96 well V-bottom plate to spin down the cells to remove old media and compound to split the cells. • 3. Based on the split ratio place the proper amount of media and cells into the V-bottom plate, and spin the plate at 1100 rpm for 5 minutes. • 4. Following the spin remove the media, careful not to disturb the cell pellet. Re-suspend pellet in 100 μL fresh media, and add to a new 96-well flat bottom plate. • 5. Add fresh compound, in the same manner as Step 3). • 6. Incubate plates for 72 hours. Repeat steps 5)-10) on Day 7. • 7. Incubate plates for 96 hours. Repeat Step 5)-10) on Day 11. • 8. Incubate 72 hours and repeat step 5) to take a final count. • 9. Data Analysis
(§5) To calculate growth for days 4, 7, 11, and 14: • 1. Calculate the split factor for day 4 to 7, day 7 to 11, and day 11-14. The split factor is the viable cells/mL on Day X (either 4, 7 or 11) divided by the density the cells are being split back to. • 2. For growth of cells from day 4 to 7, multiply the day 7 viable cells/mL density by the split factor from day 4. • 3. For growth of cells from day 7 to 11, multiply the day 11 viable cells/mL density by the days 4, and 7 split factors. • 4. For growth of cells from Day 11 to 14, multiply the Day 14 viable cells/mL density by the days 4, 7, and 11 split factors. • 5. Plot growth on semi-log chart (viable cells/mL on Y axis, in log, and days on X axis). • 6. The growth inhibition was calculated with the formula ((untreated cell numbers-treated cell numbers)/untreated cell)). • 7. Calculate the IC50 for each compound in each line using XLFit (Sigmoidal Dose-Response Model, y=(Bottom+((Top-Bottom)/(1+((IC50/×)^Hill))))).

[2] = test system: OCI-AML-3 cells; assay: Long term proliferation assay, InCell read-out; format: cell-based
Procedure: as §1, §2, §3, §4, §5

[3] = test system: SK-LU-1 cells; assay: Proliferation assay, cells in adhesion; format: cell-based
[4] = test system: NCI-H23 cells; assay: Proliferation assay, cells in adhesion; format: cell-based
[5] = test system: MOLM-13 cells; assay: Long term proliferation assay, Cell Titer-Glo read-out; format: cell-based, human
Procedure: as §1, §2, §3, §4, §5

[6] = test system: MV4-11 cells; assay: as above; format: cell-based, human
Procedure: as §1, §2, §3, §4, §5

[7] = KG-1, 96 h, KG-1, Day 4, read-out: Day 4 IC50
[8] = KG-1, 264 h, KG-1, Day 11, read-out: Day 11 IC50
[9] = KG-1, KG-1, T4, read-out: pIC50 (converted)
[10] = KG-1, KG-1, T11, read-out: IC50
[11] = KG-1, KG-1, T11, read-out: pIC50 (converted)
[12] = OCI-AML-3, 96 h, OCI-AML-3, Day 4, read-out: Day 4 IC50
[13] = OCI-AML-3, 264 h, OCI-AML-3, Day 11, read-out: Day 11 IC50
[14] = OCI-AML-3, OCI-AML3, T4, read-out: IC50
[15] = OCI-AML-3, OCI-AML3, T4, read-out: pIC50 (converted)
[16] = OCI-AML-3, OCI-AML3, T11, read-out: IC50
[17] = OCI-AML-3, OCI-AML3, T11, read-out: pIC50 (converted)
[18] = SK-LU-1, SK-LU-1, T4, read-out: IC50
[19] = SK-LU-1, SK-LU-1, T7, read-out: IC50
[20] = SK-LU-1, SK-LU-1, T7, read-out: pIC50 (converted)
[21] = SK-LU-1, SK-LU-1, T11, read-out: IC50
[22] = SK-LU-1, SK-LU-1, T11, read-out: pIC50 (converted)
[23] = NCI-H23, NCI-H23, T4, read-out: IC50
[24] = NCI-H23, NCI-H23, T4, read-out: pIC50 (converted)
[25] = NCI-H23, NCI-H23, T7, read-out: IC50
[26] = NCI-H23, NCI-H23, T7, read-out: pIC50 (converted)
[27] = NCI-H23, NCI-H23, T11, read-out: IC50
[28] = NCI-H23, NCI-H23, T11, read-out: pIC50 (converted)
[29] = MOLM-13, 96 h, MOLM-13, Day 4, Cell Titer-Glo, read-out: Day 4 IC50
[30] = MOLM-13, 168 h, MOLM-13, Day 7, Cell Titer-Glo, read-out: Day 7 IC50
[31] = MOLM-13, 264 h, MOLM-13, Day 11, Cell Titer-Glo, read-out: Day 11 IC50
[32] = MOLM-13, 336 h, MOLM-13, Day 14, Cell Titer-Glo, read-out: Day 14 IC50
[33] = MOLM-13, MOLM-13, T4, CellTiter-Glo, read-out: IC50
[34] = MOLM-13, MOLM-13, T4, CellTiter-Glo, read-out: pIC50 (converted)
[35] = MOLM-13, MOLM-13, T11, CellTiter-Glo, read-out: IC50
[36] = MOLM-13, MOLM-13, T11, CellTiter-Glo, read-out: pIC50 (converted)
[37] = MV4-11, 96 h, MV4-11, Day 4, Cell Titer-Glo, read-out: Day 4 IC50
[38] = MV4-11, 168 h, MV4-11, Day 7, Cell Titer-Glo, read-out: Day 7 IC50
[39] = MV4-11, 264 h, MV4-11, Day 11, Cell Titer-Glo, read-out: Day 11 IC50
[40] = MV4-11, 336 h, MV4-11, Day 14, Cell Titer-Glo, read-out: Day 14 IC50
[41] = MV4-11, MV4-11, T4, CellTiter-Glo, read-out: IC50
[42] = MV4-11, MV4-11, T4, CellTiter-Glo, read-out: pIC50 (converted)
[43] = MV4-11, MV4-11, T11, CellTiter-Glo, read-out: IC50
[44] = MV4-11, MV4-11, T11, CellTiter-Glo, read-out: pIC50 (converted)

## CN(C)C/C=C/C(=O)Nc1ccc(CC(=O)Nc2ccc(-c3cc4c(N5CCOCC5)ncnc4[nH]3)cc2)cc1 [Compound 5]
[1]; [7]
  IC50: > 5000 nM
[1]; [8]
  IC50: > 4470 nM
[1]; KG-1, KG-1, T4, read-out: IC50
  IC50: > 5000 nM
[1]; [9]
  IC50: > 5010 nM
[1]; [10]
  IC50: 4470 nM
[1]; [11]
  IC50: 4470 nM
[1]; KG-1, T4
  % max: <50%
[1]; KG-1, T11
  % max: 52%
[2]; [12]
  IC50: 450 nM
[2]; [13]
  IC50: 460 nM
[2]; [14]
  IC50: 450 nM
[2]; [15]
  IC50: 447 nM
[2]; [16]
  IC50: 460 nM
[2]; [17]
  IC50: 457 nM
[2]; OCI-AML3, T4
  % max: 100%
[2]; OCI-AML3, T11
  % max: 100%
[3]; [18]
  IC50: > 5000 nM
[3]; SK-LU-1, SK-LU-1, T4, read-out: pIC50 (converted)
  IC50: > 5010 nM
[3]; [19]
  IC50: > 5000 nM
[3]; [20]
  IC50: > 5010 nM
[3]; [21]
  IC50: > 5000 nM
[3]; [22]
  IC50: > 5010 nM
[3]; SK-LU-1, T4
  % max: <50%
[3]; SK-LU-1, T7
  % max: <50%
[3]; SK-LU-1, T11
  % max: <50%
[4]; [23]
  IC50: > 5000 nM
[4]; [24]
  IC50: > 5010 nM
[4]; [25]
  IC50: > 5000 nM
[4]; [26]
  IC50: > 5010 nM
[4]; [27]
  IC50: > 5000 nM
[4]; [28]
  IC50: > 5010 nM
[4]; NCI-H23, T4
  % max: <50%
[4]; NCI-H23, T7
  % max: <50%
[4]; NCI-H23, T11
  % max: <50%
[5]; [29]
  IC50: 500 nM
[5]; [30]
  IC50: 340 nM
[5]; [31]
  IC50: 350 nM
[5]; [32]
  IC50: 360 nM
[5]; [33]
  IC50: 500 nM
[5]; [34]
  IC50: 501 nM
[5]; [35]
  IC50: 350 nM
[5]; [36]
  IC50: 355 nM
[5]; MOLM-13, T4, CellTiter-Glo
  % max: 98%
[5]; MOLM-13, T11, CellTiter-Glo
  % max: 99%
[6]; [37]
  IC50: 360 nM
[6]; [38]
  IC50: 140 nM
[6]; [39]
  IC50: 110 nM
[6]; [40]
  IC50: 90 nM
[6]; [41]
  IC50: 360 nM
[6]; [42]
  IC50: 363 nM
[6]; [43]
  IC50: 110 nM
[6]; [44]
  IC50: 115 nM
[6]; MV4-11, T4, CellTiter-Glo
  % max: 99%
[6]; MV4-11, T11, CellTiter-Glo
  % max: 99%

## C=CC(=O)NC1CCCN(Cc2ccnc(C(=O)Nc3ccc(-c4cc5c(N6CCOCC6)ncnc5[nH]4)cc3)c2)C1 (centres unmarked) [Compound 10]
[1]; [7]
  IC50: 520 nM
[1]; [8]
  IC50: 300 nM
[1]; KG-1, KG-1, T4, read-out: IC50
  IC50: 520 nM
[1]; [9]
  IC50: 525 nM
[1]; [10]
  IC50: 300 nM
[1]; [11]
  IC50: 302 nM
[1]; KG-1, T4
  % max: 100%
[1]; KG-1, T11
  % max: 100%
[2]; [12]
  IC50: 110 nM
[2]; [13]
  IC50: 120 nM
[2]; [14]
  IC50: 110 nM
[2]; [15]
  IC50: 110 nM
[2]; [16]
  IC50: 120 nM
[2]; [17]
  IC50: 123 nM
[2]; OCI-AML3, T4
  % max: 100%
[2]; OCI-AML3, T11
  % max: 100%
[3]; [18]
  IC50: 680 nM
[3]; [19]
  IC50: 590 nM
[3]; [20]
  IC50: 589 nM
[3]; [21]
  IC50: 370 nM
[3]; [22]
  IC50: 372 nM
[3]; SK-LU-1, T4
  % max: 82%
[3]; SK-LU-1, T7
  % max: 95%
[3]; SK-LU-1, T11
  % max: 96%
[4]; [23]
  IC50: 350 nM
[4]; [24]
  IC50: 355 nM
[4]; [25]
  IC50: 200 nM
[4]; [26]
  IC50: 263 nM
[4]; [27]
  IC50: 190 nM
[4]; [28]
  IC50: 191 nM
[4]; NCI-H23, T4
  % max: 92%
[4]; NCI-H23, T7
  % max: 96%
[4]; NCI-H23, T11
  % max: 98%
[5]; [29]
  IC50: 100 nM
[5]; [30]
  IC50: 50 nM
[5]; [31]
  IC50: 50 nM
[5]; [32]
  IC50: 80 nM
[5]; [33]
  IC50: 100 nM
[5]; [34]
  IC50: 97.7 nM
[5]; [35]
  IC50: 50 nM
[5]; [36]
  IC50: 47.9 nM
[5]; MOLM-13, T4, CellTiter-Glo
  % max: 98%
[5]; MOLM-13, T11, CellTiter-Glo
  % max: 99%
[6]; [37]
  IC50: 150 nM
[6]; [38]
  IC50: 70 nM
[6]; [39]
  IC50: 60 nM
[6]; [40]
  IC50: 50 nM
[6]; [41]
  IC50: 150 nM
[6]; [42]
  IC50: 151 nM
[6]; [43]
  IC50: 60 nM
[6]; [44]
  IC50: 56.2 nM
[6]; MV4-11, T4, CellTiter-Glo
  % max: 99%
[6]; MV4-11, T11, CellTiter-Glo
  % max: 99%
